# Assay results from publication PMC11237035, “Glutathione determines chronic myeloid leukemia vulnerability to an inhibitor of CMPK and TMPK” (Communications Biology, 2024).
# Values joined by “and” are separate entries in the source; they are usually repeats but may differ in a detail not shown here. Identical values can stand only once. Like-named read-outs stand apart in the source and are kept apart here.
# Tests used:
# T315I-Bcr-Abl-32D cells [1] = assay: CCK-8 cell viability assay, T315I-Bcr-Abl-32D cells; format: cell-based, mouse; conditions: for viability (0 = 100): T315I-Bcr-Abl, single replicates
# K562 cells = assay: CCK-8 cell viability assay, K562 cells; format: cell-based, human; conditions: for cell viability (Figure 7d): K562, relative to 0 = 100, per replicate
# Experimental: After 3 days, cells were analyzed by viability assays.
# untransformed 32D cells = assay: Western blot of tyrosine phosphorylation, untransformed 32D cells; format: cell-based, mouse; conditions: untransformed 32D cells, JMF4073 at indicated concentrations, Western blot
# WT-Bcr-Abl-32D cells = assay: Western blot of tyrosine phosphorylation and Bcr-Abl downstream signaling, WT-Bcr-Abl-32D cells; format: cell-based, mouse; conditions: WT-Bcr-Abl-32D cells, JMF4073 at indicated concentrations, Western blot
# From the text: (§1) Supplementary Figure 1. Bcr-Abl-activated downstream signaling in WT- and
# (§2) The comparison of Bcr-Abl downstream signaling (Akt, mTorC1, and Stat5) in WT- […]
# T315I-Bcr-Abl-32D cells [2] = assay: Western blot of tyrosine phosphorylation and Bcr-Abl downstream signaling, T315I-Bcr-Abl-32D cells; format: cell-based, mouse; conditions: T315I-Bcr-Abl-32D cells, JMF4073 at indicated concentrations, Western blot
# From the text: as §1, §2
# hTMPK = biological target: T1, hTMPK (Homo sapiens, UniProt P23919); assay: biochemical
# T1 sequence (P23919 1-212): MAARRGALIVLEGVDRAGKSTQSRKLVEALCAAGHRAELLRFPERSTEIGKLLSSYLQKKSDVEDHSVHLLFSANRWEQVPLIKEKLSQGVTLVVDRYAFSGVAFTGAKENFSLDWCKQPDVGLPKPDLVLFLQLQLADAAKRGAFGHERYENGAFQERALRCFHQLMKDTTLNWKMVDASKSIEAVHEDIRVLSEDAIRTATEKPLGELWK
# Experimental: Activity assay was measured using the spectrophotometric method by coupling ADP formation to NADH oxidation catalyzed by pyruvate kinase and lactate dehydrogenase as described previously[20]. Each reaction contained 0.4 μg TMPK or 0.3 μg CMPK was incubated at 25 °C followed by using Tecan Spark 10 microplate reader to detect the change in NADH measurement at 340 nm absorption according to the manufacturer’s instructions.
# TCCS cells = assay: CCK-8 cell viability assay, TCCS cells; conditions: for cell viability (Figure 7d) / cell viability (Figure 7g): TCCS, per replicate; for cell viability (Figure 7d): relative to 0 = 100; for cell viability (Figure 7g): NT, NT 0 μM = 100
# Experimental: (§3) Cells were seeded at the density of 1 × 10^3 cells/well in 96-well microplate. After 3 days, cell viability was determined using the CCK-8 cell viability. The viability was measured by using Tecan Spark 10 microplate reader at 450 nm according to the manufacturer’s instructions.
# KOPM28 cells = assay: CCK-8 cell viability assay, KOPM28 cells; conditions: for cell viability (Figure 7g): NT, NT 0 μM = 100, per replicate
# Experimental: as §3
# [3] = test system: WT-Bcr-Abl-32D cells in C3H/HeNCrNarl mice; assay: In vivo therapy of WT-Bcr-Abl-32D CML mice; conditions: WT-Bcr-Abl-32D mice
# From the text: Data are represented as means ± S.D., n = 3 biological replicates. e C3H/HeNCrNarl mice were intravenously injected with 5 × 10^5 cells of WT-Bcr-Abl-32D cell. […] Asterisks denote *p < 0.05, **p < 0.01, ***p < 0.001, or ****p < 0.0001 from unpaired two-tailed Student’s t-test or Log-rank (Mantel–Cox) test.
# Female C3H/HeNCrNarl mice were used at 6–8 weeks of age (National Laboratory Animal Center, Taiwan).
# Mouse CML induction and in vivo therapy
# Female C3H/HeNCrNarl mice were used at 6-8 weeks of age (National
# Laboratory Animal Center, Taiwan). WT-Bcr-Abl-32D-EGFP+ cells (5 × 105)
# suspended in 200 μL of HBSS were injected into each mouse through the tail vein. After
# were monitored for peripheral blood (PB) and counted by Taiwan Mouse Clinic-
# National Phenotyping Center, National Research Program for Genomic Medicine
# (NSC). For T315I-Bcr-Abl CML mice, T315I-Bcr-Abl-32D-EGFP+ cells (1×106)
# suspended in 200 μL of HBSS were tail-vein-injected. After 7 days of transplantation,
# (§4) For monitoring CML progress, mice blood was
# (§5) collected in anticoagulation tubes by submandibular blood collection, followed by
# (§6) lysing red blood cells with RBC lysis buffer (Invitrogen). After washing, the remaining
# (§7) cells were suspended in 500 μL of HBSS and subjected to flow cytometry analysis
# (FACScalibur, BD Bioscience) with CellQuest software. The number of EGFP+ cells
# [4] = test system: T315I-Bcr-Abl-32D cells in C3H/HeNCrNarl mice; conditions: for survival of leukemia mice: T315I-Bcr-Abl-32D mice, vs vehicle
# Experimental: Asterisks denote *p < 0.05, **p < 0.01, ***p < 0.001, or ****p < 0.0001 from unpaired two-tailed Student’s t-test or Log-rank (Mantel–Cox) test.
# T315I-Bcr-Abl-transformed and untransformed 32D cells were treated with UK-5099 (25 μM) for 16 h. […] Data are represented as means ± S.D., n > 3 biological replicates.
# The animal studies were approved by the biosafety committee at National Taiwan University and conformed to the national guidelines and regulations (IACUC # 20201063). Female C3H/HeNCrNarl mice were used at 6–8 weeks of age (National Laboratory Animal Center, Taiwan).
# Mouse CML induction and in vivo therapy
# The animal studies were approved by the biosafety committee at National Taiwan
# University and conformed to the national guidelines and regulations (IACUC #
# 20201063). Female C3H/HeNCrNarl mice were used at 6-8 weeks of age (National
# Laboratory Animal Center, Taiwan).
# suspended in 200 μL of HBSS were injected into each mouse through the tail vein.
# suspended in 200 μL of HBSS were tail-vein-injected.
# as §4, §5, §6, §7
# (FACScalibur, BD Bioscience) with CellQuest software.
smiles,measurement,setting,value
"CC(C)(C)OC(=O)N1CCN(C(=O)Cn2sc3ccc(F)cc3c2=O)CC1 [JMF4073, Tert-butyl 4-(2-(5-fluoro-3-oxobenzo[d]isothiazol-2(3H)-yl)acetyl) piperazine-1-carboxylate]",viability (0 = 100),T315I-Bcr-Abl-32D cells [1]; JMF4073 2 mM (so in the source),12 and 38 and 34.0126
same,viability (0 = 100),T315I-Bcr-Abl-32D cells [1]; JMF4073 5 mM (so in the source),19 and 10 and 9.067
same,JMF4073 sensitivity with BSO co-treatment,"T315I-Bcr-Abl-32D cells [1]; T315I-Bcr-Abl-32D cells, BSO 12.5 μM",markedly increased
same,JMF4073 sensitivity with UK-5099 treatment,"T315I-Bcr-Abl-32D cells [1]; T315I-Bcr-Abl-32D cells, UK-5099 25 μM",sensitized
same,cell viability (Figure 7d),K562 cells; JMF4073 0.625 (mM as printed),114.189 and 84.0418 and 97.6144
same,cell viability (Figure 7d),K562 cells; JMF4073 1.25 (mM as printed),86.4343 and 75.2342 and 85.0231
same,cell viability (Figure 7d),K562 cells; JMF4073 2.5 (mM as printed),42.6408 and 39.7616 and 38.8404
same,cell viability (Figure 7d),K562 cells; JMF4073 5 (mM as printed),4.788 and 0.7438 and 0.1275
same,JMF4073 sensitivity,"K562 cells; K562 cells, 3 days, compared among K562, TCCS, KOPM28",higher
same,levels of overall tyrosine phosphorylation,untransformed 32D cells,unaffected
same,levels of overall tyrosine phosphorylation,WT-Bcr-Abl-32D cells,unaffected
same,levels of overall tyrosine phosphorylation,T315I-Bcr-Abl-32D cells [2],unaffected
same,IC50,hTMPK,160 nM and ~170 nM
same,sensitivity to combinatory treatment of JMF4073 and UK-5099,TCCS cells; TCCS cells,insensitive
same,JMF4073 sensitivity,"TCCS cells; TCCS cells, 3 days, compared among K562, TCCS, KOPM28",less
same,JMF4073 sensitivity after erastin pretreatment,"TCCS cells; TCCS cells, erastin 0.5 μM, 16 h",markedly increased
same,cell viability (Figure 7d),TCCS cells; JMF4073 0.625,120.422 and 103.29 and 164.136
same,cell viability (Figure 7d),TCCS cells; JMF4073 1.25,102.037 and 133.359
same,cell viability (Figure 7d),TCCS cells; JMF4073 2.5,39.3238 and 117.065
same,cell viability (Figure 7d),TCCS cells; JMF4073 5,61.7646 and -1.852 and 14.6452
same,cell viability (Figure 7g),TCCS cells; JMF 4073 0.625 μM,120.422 and 103.29 and 164.136
same,cell viability (Figure 7g),TCCS cells; JMF 4073 1.25 μM,102.037 and 133.359
same,cell viability (Figure 7g),TCCS cells; JMF 4073 2.5 μM,39.3238 and 117.065
same,cell viability (Figure 7g),TCCS cells; JMF 4073 5 μM,61.7646 and -1.852 and 14.6452
same,cell viability (Figure 7g),"KOPM28 cells; KOPM28, JMF 4073 1.25 μM",106.704 and 151.464
same,cell viability (Figure 7g),"KOPM28 cells; KOPM28, JMF 4073 2.5 μM",112.966 and 158.237
same,cell viability (Figure 7g),"KOPM28 cells; KOPM28, JMF 4073 5 μM",142.547 and 122.577 and 85.9406
same,cell viability (Figure 7g),"KOPM28 cells; KOPM28, JMF 4073 10 μM",0 and -1.445 and 2.083
same,sensitivity to combinatory treatment of JMF4073 and UK-5099,KOPM28 cells; KOPM28 cells,insensitive
same,JMF4073 sensitivity,"KOPM28 cells; KOPM28 cells, 3 days, compared among K562, TCCS, KOPM28",insensitive
same,JMF4073 sensitivity after erastin pretreatment,"KOPM28 cells; KOPM28 cells, erastin 0.5 μM, 16 h",markedly increased
same,WBC (White blood cell/Leukocyte count),"[3]; IP JMF4073, Day 26, submandibular blood, single mice",brought down
same,survival of leukemia mice,"[3]; JMF4073 5 mg/kg i.p. daily for 14 days, vs vehicle",prolonged the survival
same,Spleen weight,"[4]; Figure 6h, individual mice N1-N3",0.26 g and 0.29 g and 0.58 g
same,spleen size,[4]; JMF4073 5 mg/kg + UK-5099 10 mg/kg i.p.,marked decreases
same,population of T315I-Bcr-Abl-32D/EGFP+ cells in blood,"[4]; JMF4073 5 mg/kg + UK-5099 10 mg/kg i.p., flow cytometry, day 30 after transplantation",marked decreases
same,survival of leukemia mice,[4]; JMF4073 5 mg/kg + UK-5099 10 mg/kg i.p. daily for 14 days,prolonged the survival
same,survival of leukemia mice,[4]; JMF4073 5 mg/kg i.p. daily for 14 days,not significantly prolonged
